{
  "source": "patent US6663881B2",
  "about": "(priority 1993, dated 2003)",
  "key": {"[1]": {"tested_on": "Vascular smooth muscle cells"}, "[2]": {"tested_on": "Vascular smooth muscle cells (BO54)", "test": "Scratch-migration assay", "format": "cell-based, baboon", "set-up": "key: −=no toxicity; +1=minimal; +2=mild; +3=moderate; +4=marked toxicity", "conditions": "Continuous Exposure", "procedure": "Scratch assays to determine the extent of smooth muscle cell migration inhibition by cytochalasin B were performed in accordance with the following protocol:\nVascular smooth muscle cells (BO54) were derived from explants of baboon aortic smooth muscle, as described in Example 10. The cells were grown in flat bottom, six well tissue culture plates, which hold about 5 ml of medium. The vascular smooth muscle cells were plated at 200,000 cells/well and placed at 37° C. in a humidified 5% CO2 incubator for 18 hours. The wells were then scratched with a sterile portion of a single edge razor blade that was held by clamp or pliers and was brought aseptically into contact with the bottom of the well at a 90° angle. The cells from a small area along the scratch were removed by a sterile cotton tipped applicator while the blade was in contact with the bottom of the well. After incubation, the presence of cells in the “scratched” area is indicative of cell migration across the scratch line.\nBriefly, a stock solution of cytochalasin B (Sigma Chemical Co.) in dimethyl sulfoxide (DMSO) at 1 mg/ml was prepared. Test dilutions of cytochalasin B or control medium were added. Each experiment included two sets of plates:\nA set: Test agent exposure for 1, 3, 6, 8 and 10 days only; and\nB set: Test agent exposure for 1, 3, 6, 8 and 10 days, followed by a seven day recovery time with control medium.\nBoth sets of plates were fixed (10% formalin in PBS) and stained (0.02% crystal violet) at the end of the timed exposures. Test concentrations for cytochalasin B were 1, 0.1 and 0.01 μg/ml, and a negative medium control was included. […]\nIn this Table, “M” indicates Migration Grade, wherein −=no migration; +1=minimal; +2=mild; +3=moderate; and +4=marked (maximum density; limit of cell contact inhibition) migration of vascular smooth muscle cells into the cleared area adjacent to the scratch. […] The migration results are expressed as “Grade in the Cleared Area of the Well/Grade in an Undisturbed Region of the Well.” The toxicity values represent a grade for all cells in each well."}, "[3]": {"test": "Tissue distribution of cytochalasin B after intravenous administration (TLC)", "format": "in vivo, mice", "procedure": "Cytochalasin B was also administered intravenously to mice at 3.5 mg/kg (in methanol or Tween 20/carboxymethyl cellulose). Mice were sacrificed at 2 minutes, 15 minutes, 30 minutes, 3 hours and 12 hours after cytochalasin B administration and tissue extracts analyzed for cytochalasin by TLC. The maximal recovery of cytochalasin B from tissue extracts was 32%."}, "[4]": {"tested_on": "balloon traumatized left carotid artery"}, "[5]": {"tested_on": "swine coronary arteries traumatized by embolectomy or over-sized PTCA balloon", "test": "Swine coronary artery study, MIC catheter infusion, morphometry at 4 weeks (Table 15)", "format": "in vivo", "conditions": "8.0 μg/ml", "procedure": "Swine coronary arteries were also traumatized by embolectomy or over-sized PTCA balloon, and then 8-16 ml of cytochalasin B at 8.0 μg/ml was infused into the arterial wall with a MIC catheter to achieve a therapeutic dose. Controls included a diluent control and a traumatized untreated control, and all animals were sacrificed 4 weeks after intervention and coronary arteries were fixed by perfusion. Morphometry was performed on selected sections from proximal, treated and distal segments of coronary arteries (Table 15)."}, "[6]": {"tested_on": "balloon traumatized left carotid artery", "test": "Inter-arterial infusion of crystalline cytochalasin B in balloon traumatized rat carotid artery", "format": "in vivo, Sprague-Dawley rats", "procedure": "Another study employed twenty, male, Sprague-Dawley rats. The rats underwent balloon trauma to their left carotid artery, followed by inter-arterial infusion of a solution containing 1 mg crystalline cytochalasin B in […] vehicle (Hanks sterile salt solution with 0.5% Cremophor) or a diluent (saline) control. Animals were sacrificed immediately after infusion, and 2, 4, 7 and 14 days post-trauma and infusion. Post-sacrifice, the left and the right (control) carotid arteries were removed. Samples of arteries were obtained for quantitation of ^3H-cytochalasin B by oxidation and scintillation counting, histopathology, autoradiography and vascular morphometry. Histopathology documented uniform, circumferential balloon trauma in the arterial wall of the left carotid arteries."}},
  "note": "Like-named read-outs stand apart in the source and are kept apart here.",
  "data": [
    {"compound": "C=C1[C@@H](C)[C@H]2[C@H](Cc3ccccc3)NC(=O)[C@]23OC(=O)/C=C/[C@H](O)CCC[C@@H](C)C/C=C/[C@H]3[C@@H]1O", "note": "[cytochalasin B]", "values": [
      {"measurement": "Morphological cytotoxicity grade", "setting": "[1]; 0.01 μg, 24 hrs + 24 hrs", "result": 0},
      {"measurement": "Morphological cytotoxicity grade", "setting": "[1]; 0.01 μg, 24 hrs + 48 hrs", "result": 0},
      {"measurement": "Morphological cytotoxicity grade", "setting": "[1]; 0.01 μg, 24 hrs + 72 hrs", "result": 0},
      {"measurement": "Morphological cytotoxicity grade", "setting": "[1]; 0.01 μg, 24 hrs + 96 hrs", "result": 0},
      {"measurement": "Morphological cytotoxicity grade", "setting": "[1]; 0.01 μg, 24 hrs + 120 hrs", "result": 0},
      {"measurement": "Morphological cytotoxicity grade", "setting": "[1]; 0.01 μg, Continuous 6 hrs", "result": 0},
      {"measurement": "Morphological cytotoxicity grade", "setting": "[1]; 0.01 μg, Continuous 24 hrs (first listing)", "result": 0},
      {"measurement": "Morphological cytotoxicity grade", "setting": "[1]; 0.01 μg, Continuous 24 hrs (second listing)", "result": 0},
      {"measurement": "Morphological cytotoxicity grade", "setting": "[1]; 0.01 μg, Continuous 48 hrs", "result": 0},
      {"measurement": "Morphological cytotoxicity grade", "setting": "[1]; 0.01 μg, Continuous 72 hrs", "result": 0},
      {"measurement": "Morphological cytotoxicity grade", "setting": "[1]; 0.01 μg, Continuous 96 hrs", "result": 0},
      {"measurement": "Morphological cytotoxicity grade", "setting": "[1]; 0.01 μg, Continuous 120 hrs", "result": 0},
      {"measurement": "Morphological cytotoxicity grade", "setting": "[1]; 0.01 μg, Continuous 168 hrs", "result": 0},
      {"measurement": "Morphological cytotoxicity grade", "setting": "[1]; 0.01 μg, Continuous 216 hrs", "result": 0},
      {"measurement": "Morphological cytotoxicity grade", "setting": "[1]; 0.01 μg, Continuous 264 hrs", "result": 0},
      {"measurement": "Morphological cytotoxicity grade", "setting": "[1]; 0.1 μg, 5 min + 2 hrs", "result": 0},
      {"measurement": "Morphological cytotoxicity grade", "setting": "[1]; 0.1 μg, 5 min + 24 hrs", "result": 0},
      {"measurement": "Morphological cytotoxicity grade", "setting": "[1]; 0.1 μg, 5 min + 48 hrs", "result": 0},
      {"measurement": "Morphological cytotoxicity grade", "setting": "[1]; 0.1 μg, 5 min + 72 hrs", "result": 0},
      {"measurement": "Morphological cytotoxicity grade", "setting": "[1]; 0.1 μg, 5 min + 96 hrs", "result": 0},
      {"measurement": "Morphological cytotoxicity grade", "setting": "[1]; 0.1 μg, 5 min + 120 hrs", "result": 0},
      {"measurement": "Morphological cytotoxicity grade", "setting": "[1]; 0.1 μg, 24 hrs + 24 hrs", "result": 0.5},
      {"measurement": "Morphological cytotoxicity grade", "setting": "[1]; 0.1 μg, 24 hrs + 48 hrs", "result": 1},
      {"measurement": "Morphological cytotoxicity grade", "setting": "[1]; 0.1 μg, 24 hrs + 72 hrs", "result": 0.5},
      {"measurement": "Morphological cytotoxicity grade", "setting": "[1]; 0.1 μg, 24 hrs + 96 hrs", "result": 0},
      {"measurement": "Morphological cytotoxicity grade", "setting": "[1]; 0.1 μg, 24 hrs + 120 hrs", "result": 0},
      {"measurement": "Morphological cytotoxicity grade", "setting": "[1]; 0.1 μg, Continuous 6 hrs", "result": 0},
      {"measurement": "Morphological cytotoxicity grade", "setting": "[1]; 0.1 μg, Continuous 24 hrs (first listing)", "result": 1},
      {"measurement": "Morphological cytotoxicity grade", "setting": "[1]; 0.1 μg, Continuous 24 hrs (second listing)", "result": 0},
      {"measurement": "Morphological cytotoxicity grade", "setting": "[1]; 0.1 μg, Continuous 48 hrs", "result": 1},
      {"measurement": "Morphological cytotoxicity grade", "setting": "[1]; 0.1 μg, Continuous 72 hrs", "result": 1},
      {"measurement": "Morphological cytotoxicity grade", "setting": "[1]; 0.1 μg, Continuous 120 hrs", "result": 1},
      {"measurement": "Morphological cytotoxicity grade", "setting": "[1]; 0.1 μg, Continuous 168 hrs", "result": 1},
      {"measurement": "Morphological cytotoxicity grade", "setting": "[1]; 0.1 μg, Continuous 216 hrs", "result": 1},
      {"measurement": "Morphological cytotoxicity grade", "setting": "[1]; 0.1 μg, Continuous 264 hrs", "result": 1},
      {"measurement": "Morphological cytotoxicity grade", "setting": "[1]; 1 μg, 5 min + 2 hrs", "result": 0},
      {"measurement": "Morphological cytotoxicity grade", "setting": "[1]; 1 μg, 5 min + 48 hrs", "result": 1},
      {"measurement": "Morphological cytotoxicity grade", "setting": "[1]; 1 μg, 5 min + 72 hrs", "result": 1},
      {"measurement": "Morphological cytotoxicity grade", "setting": "[1]; 1 μg, 5 min + 96 hrs", "result": 1},
      {"measurement": "Morphological cytotoxicity grade", "setting": "[1]; 1 μg, 5 min + 120 hrs", "result": 1},
      {"measurement": "Morphological cytotoxicity grade", "setting": "[1]; 1 μg, 24 hrs + 24 hrs", "result": 3},
      {"measurement": "Morphological cytotoxicity grade", "setting": "[1]; 1 μg, 24 hrs + 48 hrs", "result": 4},
      {"measurement": "Morphological cytotoxicity grade", "setting": "[1]; 1 μg, 24 hrs + 72 hrs", "result": 4},
      {"measurement": "Morphological cytotoxicity grade", "setting": "[1]; 1 μg, 24 hrs + 96 hrs", "result": 4},
      {"measurement": "Morphological cytotoxicity grade", "setting": "[1]; 1 μg, 24 hrs + 120 hrs", "result": 4},
      {"measurement": "Morphological cytotoxicity grade", "setting": "[1]; 1 μg, Continuous 24 hrs (first listing)", "result": 3},
      {"measurement": "Morphological cytotoxicity grade", "setting": "[1]; 1 μg, Continuous 24 hrs (second listing)", "result": 3},
      {"measurement": "Morphological cytotoxicity grade", "setting": "[1]; 1 μg, Continuous 48 hrs", "result": 3},
      {"measurement": "Morphological cytotoxicity grade", "setting": "[1]; 1 μg, Continuous 72 hrs", "result": 3},
      {"measurement": "Morphological cytotoxicity grade", "setting": "[1]; 1 μg, Continuous 96 hrs", "result": 3},
      {"measurement": "Morphological cytotoxicity grade", "setting": "[1]; 1 μg, Continuous 120 hrs", "result": 3},
      {"measurement": "Morphological cytotoxicity grade", "setting": "[1]; 1 μg, Continuous 168 hrs", "result": 4},
      {"measurement": "Morphological cytotoxicity grade", "setting": "[1]; 1 μg, Continuous 216 hrs", "result": 4},
      {"measurement": "Morphological cytotoxicity grade", "setting": "[1]; 1 μg, Continuous 264 hrs", "result": 4},
      {"measurement": "cytotoxicity grade at in vitro effective dosage", "setting": "[1]; 1 μg/ml, anti-migration/contraction effective dose", "result": 1},
      {"measurement": "Morphological cytotoxicity grade", "setting": "[1]; 10 μg, 5 min + 2 hrs", "result": 0.5},
      {"measurement": "Morphological cytotoxicity grade", "setting": "[1]; 10 μg, 5 min + 24 hrs", "result": 4},
      {"measurement": "Morphological cytotoxicity grade", "setting": "[1]; 10 μg, 5 min + 48 hrs", "result": 4},
      {"measurement": "Morphological cytotoxicity grade", "setting": "[1]; 10 μg, 5 min + 120 hrs", "result": 5},
      {"measurement": "Toxicity Grade", "setting": "[2]; Day 6, 1.0 μg/mL", "result": "+4"},
      {"measurement": "Toxicity Grade", "setting": "[2]; Day 8, 1.0 μg/mL", "result": "+4"},
      {"measurement": "Toxicity Grade", "setting": "[2]; Day 10, 1.0 μg/mL", "result": "+4"},
      {"measurement": "acute toxicity", "setting": "[3]; 3.5 mg/kg intravenously", "result": "no acute toxicity"},
      {"measurement": "maximal recovery from tissue extracts", "setting": "[3]; 3.5 mg/kg intravenously", "result": 32, "unit": "%"},
      {"measurement": "tissue localization", "setting": "[3]; 3.5 mg/kg intravenously", "result": "localized to the lung and the injection site"},
      {"measurement": "levels in tissues", "setting": "[3]; 12 hours after administration", "result": "very low levels"},
      {"measurement": "morphometry vs untreated controls", "setting": "[4]; 14 days", "result": "no statistical difference from the controls"},
      {"measurement": "post-surgical weight gain", "setting": "[4]; periadventitial crystals", "result": "delay in post-surgical weight gain"},
      {"measurement": "toxicity at the surgical site", "setting": "[4]; periadventitial crystals", "result": "significant toxicity at the surgical site"},
      {"measurement": "arterial remodeling (area bounded by the external elastic lamina)", "setting": "[5]", "result": "trend toward beneficial arterial remodeling"},
      {"measurement": "luminal area", "setting": "[5]", "result": "did not result in a statistically significant increase in luminal area"},
      {"measurement": "amount present over the treated length of artery", "setting": "[6]; day 0", "result": "approximately 8 ug"},
      {"measurement": "amount present over the treated length of artery", "setting": "[6]; day 2", "result": "less than 2 ng"},
      {"measurement": "crystals by autoradiography", "setting": "[6]; day 4", "result": "not detectable by autoradiography"},
      {"measurement": "mean luminal area and neointimal area vs diluent control", "setting": "[6]; five treated rats", "result": "higher mean luminal area and a smaller neointimal area"},
      {"measurement": "neointima formation vs diluent treated rats", "setting": "[6]; morphometric analysis", "result": "no statistically significant reduction in neointima formation"}
    ]}
  ]
}
